Patent US7030087B2, “Synthetic approach to designed chemical structures” (priority 1996, dated 2006)

Key:
[1] = tested on: EC (endothelial cells); assay: EC proliferation, 3[H]thymidine incorporation assay; assay type: cell-based
Protocol: (§1) Since the in vivo situation of tumor associated EC involves the low expression or even absence of ICAM-1, the next set of experiments aimed to study the ability to reinduce ICAM-I expression after bFBF preincubation. […] In these experiments, HUVEC were pretreated for 3 days with bFGF, subsequently PF4 was added for 3 days and, where indicated in the last 16 hours of culture 4 ng/ml TNFα was added. Human umbilical vein derived endothelial cells (HUVEC) were harvested from normal human umbilical cords by perfusion with 0.125% trypsin/EDTA as described previously. Cells were cultured in fibronectin (FN) coated tissue culture flasks in culture medium (RPMI-1640 with 20% human serum (HS), supplemented with 2 mM glutamine and 100 U/ml penicillin and 0.1 mg/ml streptomycin). Immunofluorescence using indirect PE-conjugated reagents required three separate incubations. 1×10^5 EC were fixed for 1 hour in 1% paraformaldehyde, resuspended in 20 μl appropriately diluted Mab and incubated for 1 hour on ice. Subsequently, cells were washed two times in PBS/BSA (0.1%) and incubated for another 30 minutes with biotinylated rabbit-anti-mouse Ig (Dako, Glostrup, Denmark). After another 2 washings, cells were incubated with streptavidin-phycoerythrin conjugate (Dako). Stained cells were analyzed on a FACScan flowcytometer. Data analysis was performed using PCLysys software (Becton Dickinson, Mountain View, Calif.). Statistical significance of observed differences was determined using the Student's t-test.
EC proliferation was measured using a ^3[H]thymidine incorporation assay. EC were seeded in flatbottomed 96-well tissue culture plates (5000 cells/well) and grown for 3 days, in culture medium. In some cultures the proliferation of EC was enhanced by incubation with 10 ng/ml bFGF. During the list 6 hours of the assay, the culture was pulsed with 0.5 μCi [methyl-^3H]thymidine/well. Results are expressed as the arithmetic mean counts per minute (cpm) of triplicate cultures.

[2] = tested on: P. aeruginosa; assay: Bactericidal activity assay; assay type: cell-based, Pseudomonas aeruginosa type 1
Excerpt: Bacteria: P. aeruginosa type 1 is a clinical isolate maintained in the laboratory. The isolate remains a smooth strain and was serotyped by the scheme of Homma. The Pseudomonas strain was maintained by monthly transfer on blood agar plates.
The peptides can be assayed for bactericidal activity against a variety of organisms such as Pseudomonas aeruginosa type 1, P. cepacia ATCC 25608, E. coli B, and Staphylococcus aureus 502A by standard methods.
Pseudomonas aeruginosa type 1 is a clinical isolate. The isolate remains a smooth strain and was serotyped by the scheme of Homma (Jpn. J. Exp. Med. 46:329, 1976). A rough strain, E. coli B and S. aureus 502A were obtained from Paul Quie, University of Minnesota (Minneapolis, Minn.). The characteristics of the S. aureus strain have been described by Shinefield et al. (Amer. J. Dis. Chil. 105:646, 1963). Pseudomonas cepacia ATCC 25608 can be purchased from the ATCC. S. aureus and E. coli were maintained on nutrient agar plates and the Pseudomonas strains were maintained on blood agar plates.
Pyrogen-free solutions were used throughout the assay and all methods that follow. Log phase bacteria were prepared from a culture in brain heart infusion broth (Hovde et al. Infect. Immun. 54:142–148, 1986) and bacteria were washed and resuspended in saline with adjustment to an optical density at 650 nm to provide a yield of about 3×10^8 CFU/ml. Bacteria were diluted 1:10 in 0.08M citrate phosphate buffer, pH 5.6 or pH 7.0, for use in the assay. S. aureus rapidly lost viability in the pH 5.6 buffer and was studied only at pH 7.0. Bactericidal activity was determined by dose response over peptide concentrations ranging from about […] to about 4.1×10^−9M. Bactericidal activity was determined by dose response, preferably determining LD50 by linear regression.

[3] = tested on: endotoxin from E. coli 055:B5; assay: Limulus amoebocyte lysate assay (E-TOXATE), endotoxin neutralization; assay type: biochemical; conditions: 5.0 × 10^−6 M Peptide; 0.02 U (0.2 pg) endotoxin from E. coli 055:B5; Table 4
Protocol: The peptides were tested for their ability to neutralize endotoxin. Quantitative endotoxin activities for these peptides were measured by Limulus amoebocyte lysate assay.
Limulus amoebocyte lysate assay: The ability of synthetic peptides to neutralize endotoxin was detected with the E-TOXATE kit manufactured by Sigma Chemicals (St. Louis, Mo.). […] Peptide or B/PI was incubated with LPS at room temperature for 5 min in 100 ul of a 1:2 dilution of pyrogen-free saline (pH 6.4). The reaction was started by addition of 100 ul of amoebocyte lysate and the final volume was 200 ul. Assuming a 10,000 molecular weight for LPS, the approximate molar ration of B/PI:LPS at neutralization was 3000 to 1.
The peptides were tested according to the method provided above. […] BG38L was used as a positive control in these experiments.

[4] = tested on: ICAM-1; assay: ICAM-1 expression on endothelial cells (immunofluorescence, FACScan); assay type: cell-based, human
Protocol: In a first series of experiments, PF4 and βpep peptides were tested for their ability to prevent bFGF (fibroblast growth factor) mediated downregulation of ICAM-1. […] Simultaneously 100 μg/ml of each PF4, βpep-14, βpep-16, or medium was added. Mean ICAM-1 fluorescence intensity values were determined.
as §1
The energy of EC to stimulation with inflammatory cytokines was the subject of a next series of experiments. For these experiments, HUVEC (human vascular endothelial cells) were pretreated with 10 ng/ml bFGF for 3 days. Subsequently, cells are subcultured for 3 days with […] in the presence of PF4. For the last 16 hours of the culture 4 ng/ml TNFα was added to induce upregulation of ICAM-1. […] The regulation of ICAM-1 at the protein level was confirmed in Northern blot analysis for detection of ICAM-1 message. In these experiments, HUVEC were cultured for 3 days with bFGF and treated for the last 4 and 24 hours with PF4 (100 μg/ml). TNFα was added 2 hours before isolation of RNA. RNA from a subconfluent EC cultures (75 cm^2 Petri-dishes) incubated with bFGF for different time-points was isolated using an RNA-zol kit (Campro Scientific, Houston, Tex.). Total RNA (10 μg) for each sample was separated in a 0.8% formaldehyde-denaturing gel, transferred to nitrocellulose (Hybond N+, Amersham International, Amersham, UK) and hybridized to a ^32P-labelled 1.9 Kb c-DNA probe, containing the functional sequence of the human ICAM-1 gene (a gift from Dr. B. Seed). Membranes were washed at a high stringency in 0.2×SSC, 0.1% SDS at 50° C. for 1 hour. Filters were exposed to X-ray films (Kodak X-omat, Eastman Kodak Company, Rochester, N.Y.) using an intensifying screen at −80° C. for not less than 12 hr. Autoradiograms were subjected to scanning using a laser densitometer (Model GS670, Bio-Rad, Hercules, Calif.) and data were analysed with the Molecular Analyst PC™ software. The intensity of the major ICAM-1 mRNA transcript was normalized with respect to actin mRNA expression used as a control.

[5] = tested on: endothelial cells (FBHEC, HUVEC); assay: Endothelial cell proliferation assay of βpeptides 1–24 (FIG. 7); assay type: cell-based
Protocol: FIG. […] FIG. 7A provides ^3H-Thymidine incorporation data for FBHEC cells and FIG. 7B provides ^3H-Thymidine incorporation data for HUVEC cells.
βpeptides 1–24 were tested in an endothelial cell proliferation assay using ^3H-thymidine incorporation. […]

In the case of “SIQDLNVSMKLFRKQAKWKLIVKLNDGRELSLD [βpep-14]”, the “EC proliferation in vitro (in words)” value [1] was “angiostatic”, the “(3H)-thymidine incorporation” value ([1]; expt 2 (first, r11), 1 μg/ml, 10 ng/ml bFGF, medium 29079 ± 2506) was 28695 ± 1062 cpm and the “(3H)-thymidine incorporation” value ([1]; expt 2 (first, r11), 1 μg/ml, no bFGF, medium 14296 ± 2490) was 14184 ± 1775 cpm. The “(3H)-thymidine incorporation” value ([1]; expt 2 (first, r11), 10 μg/ml, 10 ng/ml bFGF, medium 29079 ± 2506) was 29530 ± 1608 cpm, the “(3H)-thymidine incorporation” value ([1]; expt 2 (first, r11), 10 μg/ml, no bFGF, medium 14296 ± 2490) was 9886 ± 2114 cpm and the “(3H)-thymidine incorporation” value ([1]; expt 2 (first, r11), 100 μg/ml, 10 ng/ml bFGF, medium 29079 ± 2506) was 6585 ± 132 cpm. For the same substance, the “(3H)-thymidine incorporation” value ([1]; expt 2 (first, r11), 100 μg/ml, no bFGF, medium 14296 ± 2490) was 3774 ± 299 cpm, the “(3H)-thymidine incorporation” value ([1]; expt 2 (second, r19), 1 μg/ml, 10 ng/ml bFGF, medium 52808 ± 4092) was 48443 ± 2700 cpm and the “(3H)-thymidine incorporation” value ([1]; expt 2 (second, r19), 1 μg/ml, no bFGF, medium 6780 ± 713) was 7214 ± 1668 cpm. For the same substance, the “(3H)-thymidine incorporation” value ([1]; expt 2 (second, r19), 10 μg/ml, 10 ng/ml bFGF, medium 52808 ± 4092) was 52126 ± 1258 cpm, the “(3H)-thymidine incorporation” value ([1]; expt 2 (second, r19), 10 μg/ml, no bFGF, medium 6780 ± 713) was 6074 ± 899 cpm and the “(3H)-thymidine incorporation” value ([1]; expt 2 (second, r19), 100 μg/ml, 10 ng/ml bFGF, medium 52808 ± 4092) was 7663 ± 715 cpm. For the same substance, the “(3H)-thymidine incorporation” value ([1]; expt 2 (second, r19), 100 μg/ml, no bFGF, medium 6780 ± 713) was 1062 ± 325 cpm, the “Bactericidal Activity, % killing” value ([2]; 1.2 × 10^−7 M Peptide, 5 × 105 P. aeruginosa) was 0% and the “Bactericidal Activity, % killing at the effective dose” value ([2]; at the Ed for the same peptide) was 39.9%. The “Bactericidal Activity, Ed, Effective M dose” value ([2]; dose at which the % in brackets was found) was 960 nM, the “Endotoxin Neutralization, % neutralization” value [3] was 38.8 n = 1% and the “bFGF mediated downregulation of ICAM-1 (in words)” value ([4]; 10 ng/ml bFGF for 3 days, 100 μg/ml added simultaneously) was “complete block of bFGF mediated downregulation”.

“SIQFLKVSLNLDRKQAKWKIIVKLNDGRELSLD [βpep-24]” was tested, and the “control of endothelial cell proliferation (in words)” value [5] was “very good at controlling cell proliferation” and the “effectiveness at decreasing endothelial cell growth” value ([5]; 0.26 micromolar) was “about 30%”.

For “interferon-γ inducible protein-10 [IP-10]”, the “(3H)-thymidine incorporation” value ([1]; expt 3, 100 μg/ml, 10 ng/ml bFGF, medium 3432 ± 232) was 725 ± 95 cpm and the “effect of other inhibitors of angiogenesis on ICAM-1 expression (in words)” value [4] was “same results”.

With thrombospondin-1 [TSP-1] the “(3H)-thymidine incorporation” value ([1]; expt 4, 10 μg/ml, 10 ng/ml bFGF, medium 31954 ± 1220) was 22338 ± 860 cpm, the “(3H)-thymidine incorporation” value ([1]; expt 4, 10 μg/ml, no bFGF, medium 18904 ± 1501) was 8865 ± 639 cpm and the “(3H)-thymidine incorporation” value ([1]; expt 4, 25 μg/ml, 10 ng/ml bFGF, medium 31954 ± 1220) was 10267 ± 797 cpm. For the same substance, the “(3H)-thymidine incorporation” value ([1]; expt 4, 25 μg/ml, no bFGF, medium 18904 ± 1501) was 5565 ± 349 cpm and the “effect of other inhibitors of angiogenesis on ICAM-1 expression (in words)” value [4] was “same results”.
